The term Ki denotes a dissociation constant, usually derived from enzyme kinetics or from competition with a known ligand. As usually defined, the inhibition is the relative decrease from the control value, in per cent. Lower therefore signals a weak effect.

This passage reports Ki and inhibition results from ChEMBL document CHEMBL1142734, “Biological properties of D- and L-1-deoxyazasugars” (J Med Chem, 2005).

For assay [1], the target named is T1, Tissue alpha-L-fucosidase (Bos taurus, UniProt Q2KIM0).
T1 sequence (Q2KIM0 whole entry): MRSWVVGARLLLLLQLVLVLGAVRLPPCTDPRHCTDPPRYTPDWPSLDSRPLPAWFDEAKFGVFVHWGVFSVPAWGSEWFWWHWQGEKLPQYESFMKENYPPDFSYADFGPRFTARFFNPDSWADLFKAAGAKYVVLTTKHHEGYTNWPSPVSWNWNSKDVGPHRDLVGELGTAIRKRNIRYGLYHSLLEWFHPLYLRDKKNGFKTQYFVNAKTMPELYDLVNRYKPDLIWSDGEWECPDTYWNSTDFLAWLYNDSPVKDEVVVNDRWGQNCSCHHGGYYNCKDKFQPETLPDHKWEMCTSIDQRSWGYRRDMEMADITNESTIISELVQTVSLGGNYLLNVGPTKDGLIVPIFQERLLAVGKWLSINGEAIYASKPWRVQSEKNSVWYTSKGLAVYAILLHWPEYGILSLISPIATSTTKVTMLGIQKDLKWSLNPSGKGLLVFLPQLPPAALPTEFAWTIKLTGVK
Kind of assay: Ki value against bovine alpha-L-fucosidase.

Assay [2] has as its target T2, Beta-galactosidase (Bos taurus) (UniProt Q58D55).
T2 sequence (whole entry): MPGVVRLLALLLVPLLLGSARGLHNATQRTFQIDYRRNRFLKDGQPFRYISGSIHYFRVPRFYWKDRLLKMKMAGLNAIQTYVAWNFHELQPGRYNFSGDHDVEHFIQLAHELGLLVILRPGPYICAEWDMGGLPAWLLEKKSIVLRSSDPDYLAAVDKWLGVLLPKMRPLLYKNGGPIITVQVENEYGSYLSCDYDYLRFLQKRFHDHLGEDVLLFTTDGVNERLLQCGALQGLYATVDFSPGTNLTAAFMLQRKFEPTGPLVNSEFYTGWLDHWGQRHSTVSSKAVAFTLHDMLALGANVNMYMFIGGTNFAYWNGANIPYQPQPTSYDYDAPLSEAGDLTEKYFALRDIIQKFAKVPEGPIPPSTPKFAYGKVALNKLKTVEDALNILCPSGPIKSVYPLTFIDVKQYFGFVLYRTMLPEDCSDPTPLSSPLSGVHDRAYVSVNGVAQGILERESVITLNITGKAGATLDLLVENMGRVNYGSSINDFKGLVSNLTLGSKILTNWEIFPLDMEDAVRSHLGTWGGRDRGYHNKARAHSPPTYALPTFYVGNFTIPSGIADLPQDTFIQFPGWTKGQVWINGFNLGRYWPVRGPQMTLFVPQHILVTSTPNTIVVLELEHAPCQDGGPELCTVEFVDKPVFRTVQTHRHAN
As to the kind of experiment: Percent inhibition of beta-galactosidase of bovine liver at 1000 uM.

Assay [3] deals with T3, Tissue alpha-L-fucosidase (Bos taurus) (UniProt Q2KIM0).
T3 sequence (whole entry): T1 sequence (Q2KIM0 whole entry)
To be noted: 1000 uM.

The target of assay [4] is Sucrase-isomaltase, intestinal (Rattus norvegicus) (UniProt P23739). The settings on record: 1000 uM.
Chain of Sucrase-isomaltase, intestinal (Rattus norvegicus) (P23739 1-1013 limits assumed): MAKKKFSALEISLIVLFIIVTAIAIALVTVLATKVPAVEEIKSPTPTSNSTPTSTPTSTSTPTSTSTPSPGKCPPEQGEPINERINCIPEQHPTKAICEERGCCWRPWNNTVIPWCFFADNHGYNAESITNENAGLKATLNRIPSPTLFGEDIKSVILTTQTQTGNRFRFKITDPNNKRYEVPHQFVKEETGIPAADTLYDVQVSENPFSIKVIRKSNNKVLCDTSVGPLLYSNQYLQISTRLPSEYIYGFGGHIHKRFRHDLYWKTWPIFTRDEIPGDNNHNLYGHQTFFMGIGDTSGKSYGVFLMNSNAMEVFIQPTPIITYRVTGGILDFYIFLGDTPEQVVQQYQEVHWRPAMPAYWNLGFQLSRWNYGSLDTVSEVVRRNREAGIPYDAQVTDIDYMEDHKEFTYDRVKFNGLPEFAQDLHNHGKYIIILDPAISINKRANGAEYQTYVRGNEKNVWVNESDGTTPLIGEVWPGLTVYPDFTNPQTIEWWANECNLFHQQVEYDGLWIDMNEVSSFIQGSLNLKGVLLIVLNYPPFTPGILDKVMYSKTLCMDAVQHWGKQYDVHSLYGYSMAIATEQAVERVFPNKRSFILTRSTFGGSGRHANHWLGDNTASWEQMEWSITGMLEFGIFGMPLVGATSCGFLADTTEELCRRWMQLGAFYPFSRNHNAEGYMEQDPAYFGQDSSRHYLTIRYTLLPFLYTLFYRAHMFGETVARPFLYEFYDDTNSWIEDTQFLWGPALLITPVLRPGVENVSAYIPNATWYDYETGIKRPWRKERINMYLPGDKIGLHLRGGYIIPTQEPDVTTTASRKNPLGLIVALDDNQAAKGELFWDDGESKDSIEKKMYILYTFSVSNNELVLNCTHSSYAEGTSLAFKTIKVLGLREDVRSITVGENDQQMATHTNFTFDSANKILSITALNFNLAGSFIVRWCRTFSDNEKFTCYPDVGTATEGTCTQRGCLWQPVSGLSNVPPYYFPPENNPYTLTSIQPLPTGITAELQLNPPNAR
Chain of Sucrase-isomaltase, intestinal (Rattus norvegicus) (P23739 1014-1841 limits assumed): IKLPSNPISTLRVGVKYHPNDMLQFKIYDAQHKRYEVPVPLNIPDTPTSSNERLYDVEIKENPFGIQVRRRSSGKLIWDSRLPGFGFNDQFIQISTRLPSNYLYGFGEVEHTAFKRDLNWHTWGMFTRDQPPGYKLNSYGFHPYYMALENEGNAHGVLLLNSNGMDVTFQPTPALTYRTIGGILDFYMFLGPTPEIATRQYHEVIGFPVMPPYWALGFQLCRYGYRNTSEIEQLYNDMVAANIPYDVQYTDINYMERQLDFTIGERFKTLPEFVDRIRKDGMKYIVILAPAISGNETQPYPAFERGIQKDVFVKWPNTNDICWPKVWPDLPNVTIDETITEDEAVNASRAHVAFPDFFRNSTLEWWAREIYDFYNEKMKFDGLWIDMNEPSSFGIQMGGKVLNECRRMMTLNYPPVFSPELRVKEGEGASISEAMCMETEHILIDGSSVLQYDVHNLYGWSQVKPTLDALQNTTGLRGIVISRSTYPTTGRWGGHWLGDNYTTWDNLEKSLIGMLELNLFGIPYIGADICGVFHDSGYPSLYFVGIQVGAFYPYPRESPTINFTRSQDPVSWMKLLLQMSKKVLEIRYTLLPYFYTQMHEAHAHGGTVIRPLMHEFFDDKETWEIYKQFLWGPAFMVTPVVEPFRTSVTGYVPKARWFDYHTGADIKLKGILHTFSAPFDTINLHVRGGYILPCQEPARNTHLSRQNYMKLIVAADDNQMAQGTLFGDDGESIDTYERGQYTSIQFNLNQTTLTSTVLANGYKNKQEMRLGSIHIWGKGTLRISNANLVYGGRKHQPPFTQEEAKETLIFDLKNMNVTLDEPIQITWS
Assay [5] concerns the target T4, Beta-galactosidase (Rattus norvegicus) (UniProt D3ZUM4).
T4 sequence (whole entry): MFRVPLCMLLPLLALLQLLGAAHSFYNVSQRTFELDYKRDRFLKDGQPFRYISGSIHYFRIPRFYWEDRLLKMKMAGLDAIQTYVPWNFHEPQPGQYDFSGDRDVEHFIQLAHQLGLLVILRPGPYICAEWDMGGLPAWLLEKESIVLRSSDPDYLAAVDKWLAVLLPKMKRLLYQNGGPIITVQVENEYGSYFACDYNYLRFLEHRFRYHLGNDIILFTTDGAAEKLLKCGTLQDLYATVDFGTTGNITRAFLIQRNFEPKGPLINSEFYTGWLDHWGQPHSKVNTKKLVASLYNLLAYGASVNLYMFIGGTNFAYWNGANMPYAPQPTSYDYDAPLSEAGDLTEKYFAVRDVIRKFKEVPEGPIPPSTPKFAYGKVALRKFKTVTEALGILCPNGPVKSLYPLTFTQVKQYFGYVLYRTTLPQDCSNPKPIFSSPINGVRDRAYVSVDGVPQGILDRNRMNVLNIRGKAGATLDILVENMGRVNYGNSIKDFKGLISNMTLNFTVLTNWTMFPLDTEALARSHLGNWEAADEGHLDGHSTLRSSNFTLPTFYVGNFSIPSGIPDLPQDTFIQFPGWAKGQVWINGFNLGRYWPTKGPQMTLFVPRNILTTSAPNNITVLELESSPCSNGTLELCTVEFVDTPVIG
As to the kind of experiment: Percent inhibition of beta-galactosidase of rat epididymis at 1000 uM.

Assay [6] concerns the target Alpha-galactosidase (Coffea arabica) (UniProt Q5DUH8). To be noted: 1000 uM.
In assay [7] the target is T5, Beta-mannosidase (Rattus norvegicus) (UniProt Q4FZV0).
T5 sequence (whole entry): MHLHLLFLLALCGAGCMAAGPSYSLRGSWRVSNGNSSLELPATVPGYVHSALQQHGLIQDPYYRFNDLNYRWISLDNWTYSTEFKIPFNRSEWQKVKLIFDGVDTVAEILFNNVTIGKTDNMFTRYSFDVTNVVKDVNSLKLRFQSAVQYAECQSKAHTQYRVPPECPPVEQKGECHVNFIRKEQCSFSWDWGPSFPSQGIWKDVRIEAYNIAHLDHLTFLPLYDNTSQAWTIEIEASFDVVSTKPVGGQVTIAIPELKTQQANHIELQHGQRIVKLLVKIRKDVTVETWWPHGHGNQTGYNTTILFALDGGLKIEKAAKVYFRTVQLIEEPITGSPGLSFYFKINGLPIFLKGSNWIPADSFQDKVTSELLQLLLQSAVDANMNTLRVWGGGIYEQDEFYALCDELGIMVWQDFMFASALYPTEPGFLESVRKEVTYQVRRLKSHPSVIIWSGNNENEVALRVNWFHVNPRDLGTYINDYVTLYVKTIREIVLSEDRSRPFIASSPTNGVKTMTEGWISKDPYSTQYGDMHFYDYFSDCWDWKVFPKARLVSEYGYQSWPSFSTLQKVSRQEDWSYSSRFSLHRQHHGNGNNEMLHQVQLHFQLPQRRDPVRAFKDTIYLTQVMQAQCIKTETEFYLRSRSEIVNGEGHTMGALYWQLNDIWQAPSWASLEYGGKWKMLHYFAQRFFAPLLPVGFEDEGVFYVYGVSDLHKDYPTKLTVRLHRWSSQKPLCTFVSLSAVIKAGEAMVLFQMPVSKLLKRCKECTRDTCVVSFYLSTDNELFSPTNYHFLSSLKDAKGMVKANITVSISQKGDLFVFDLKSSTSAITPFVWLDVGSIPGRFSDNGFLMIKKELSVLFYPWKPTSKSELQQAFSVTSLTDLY
As to the kind of experiment: Percent inhibition of beta-mannosidase of rat epididymis at 1000 uM.

In assay [8] the target is T6, Alpha-galactosidase C (Aspergillus niger) (UniProt Q9UUZ4).
T6 sequence (whole entry): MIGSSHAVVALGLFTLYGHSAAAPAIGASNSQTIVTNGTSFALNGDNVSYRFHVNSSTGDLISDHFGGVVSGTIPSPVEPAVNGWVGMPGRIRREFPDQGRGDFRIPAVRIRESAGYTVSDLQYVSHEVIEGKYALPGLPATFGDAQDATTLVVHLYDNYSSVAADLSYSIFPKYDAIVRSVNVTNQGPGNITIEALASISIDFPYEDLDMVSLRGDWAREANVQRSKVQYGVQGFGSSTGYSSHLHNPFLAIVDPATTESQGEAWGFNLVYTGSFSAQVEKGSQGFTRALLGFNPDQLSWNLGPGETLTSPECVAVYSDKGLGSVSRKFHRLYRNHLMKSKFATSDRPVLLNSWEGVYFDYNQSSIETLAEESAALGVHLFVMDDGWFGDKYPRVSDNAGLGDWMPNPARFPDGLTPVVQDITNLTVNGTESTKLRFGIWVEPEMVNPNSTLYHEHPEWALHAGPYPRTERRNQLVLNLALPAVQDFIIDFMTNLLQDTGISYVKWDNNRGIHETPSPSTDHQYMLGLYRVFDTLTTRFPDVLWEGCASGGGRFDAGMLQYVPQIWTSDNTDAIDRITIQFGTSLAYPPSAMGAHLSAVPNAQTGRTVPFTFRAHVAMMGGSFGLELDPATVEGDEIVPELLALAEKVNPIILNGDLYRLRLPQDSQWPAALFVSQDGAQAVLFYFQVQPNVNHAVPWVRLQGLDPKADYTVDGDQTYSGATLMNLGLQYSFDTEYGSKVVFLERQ
Kind of assay: Percent inhibition of alpha-galactosidase of Aspergillus niger at 1000 uM.

Chain of Alpha-galactosidase (Coffea arabica) (Q5DUH8 as listed by the source): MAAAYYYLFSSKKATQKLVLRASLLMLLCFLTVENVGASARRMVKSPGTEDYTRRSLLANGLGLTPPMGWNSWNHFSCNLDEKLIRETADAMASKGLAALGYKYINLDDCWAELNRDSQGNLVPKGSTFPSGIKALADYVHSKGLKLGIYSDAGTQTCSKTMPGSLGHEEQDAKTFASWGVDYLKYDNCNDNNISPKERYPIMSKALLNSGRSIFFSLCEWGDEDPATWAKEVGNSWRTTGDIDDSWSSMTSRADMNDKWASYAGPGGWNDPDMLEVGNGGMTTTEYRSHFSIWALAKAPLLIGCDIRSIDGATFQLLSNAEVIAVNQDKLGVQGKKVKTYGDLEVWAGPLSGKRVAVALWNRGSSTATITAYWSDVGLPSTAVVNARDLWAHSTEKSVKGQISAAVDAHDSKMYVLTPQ

As to `C[C@@H]1NC[C@@H](O)[C@H](O)[C@@H]1O` [DEOXYFUCONOJIRIMYCIN], in assay [1], the Ki worked out at 1.7 nM.

With `OC[C@@H]1NC[C@H](O)[C@@H](O)[C@H]1O`, the inhibition in assay [2], in assay [3], in assay [4], in assay [5], in assay [6] and in assay [7] was below 50% throughout. The compound further registered an inhibition in assay [8] below 50%.

For the compound `OC[C@H]1NC[C@@H](O)[C@H](O)[C@@H]1O`, the inhibition in assay [2], in assay [4], in assay [5], in assay [6] and in assay [8] was below 50% each time.
